Data as given in PMC5612656, “In vitro and in vivo effects of 2,4 diaminoquinazoline inhibitors of the decapping scavenger enzyme DcpS: Context-specific modulation of SMN transcript levels” (PLoS ONE, 2017).

Key:
SMN protein [1] = test: SMN protein by Western blot in SMA cells (fibroblasts, lymphoblasts, iPS-derived neural progenitor cells); format: cell-based, human; conditions: 24 hours to 7 days
Protocol: Lysates were incubated at 95°C for 5 minutes and cleared at 14,000 RPM for 15 minutes. Cleared lysates were quantified by BCA assay. A total of 5 μg of each lysate was mixed with NuPage LDS sample buffer with […] and loaded and separated on a NuPage 10% Bis-Tris gel. Proteins were transferred to 0.2 micron nitrocellulose using the BioRad Turbo Transfer system.

[2] = system: firefly luciferase driven by the SMN2 promoter and SMN2 splicing cassette; test: SMN2 reporter gene assay, firefly luciferase; format: cell-based; conditions: 24 hrs
Protocol: (§1) The SMN2 reporter cell line was cultured in high-glucose DMEM supplemented with 10% (v/v) fetal bovine serum (FBS) and 1X Penicillin/Streptomycin. Reporter cells media was supplemented with hygromycin during maintenance. All cells were maintained at 37°C and […]. After seeding in 96-well white tissue culture plates at 25,000 per well, cells were incubated overnight before being exposed to different doses of compounds or DMSO for 24 hrs. The final DMSO concentration was kept constant at 0.1% (v/v). Firefly and renilla luciferase expression were assayed with DualGlo (Promega E2920) and measured on a PHERAstar FS microplate reader (BMG Labtech). Relative light units are normalized to DMSO control and expressed as a percentage.

[3] = system: Renilla luciferase driven by the CMV promoter; test: Reporter gene assay, CMV-driven Renilla luciferase; format: cell-based; conditions: 24 hrs
Protocol: as §1

recombinant human DcpS = target: T1, recombinant human DcpS (Homo sapiens, UniProt Q96C86); test: in vitro DcpS inhibition assay (m7GpppA-biotin substrate, ADP-biotin detection); format: biochemical; conditions: mean of two or more independent assays
T1 sequence (Q96C86 1-337): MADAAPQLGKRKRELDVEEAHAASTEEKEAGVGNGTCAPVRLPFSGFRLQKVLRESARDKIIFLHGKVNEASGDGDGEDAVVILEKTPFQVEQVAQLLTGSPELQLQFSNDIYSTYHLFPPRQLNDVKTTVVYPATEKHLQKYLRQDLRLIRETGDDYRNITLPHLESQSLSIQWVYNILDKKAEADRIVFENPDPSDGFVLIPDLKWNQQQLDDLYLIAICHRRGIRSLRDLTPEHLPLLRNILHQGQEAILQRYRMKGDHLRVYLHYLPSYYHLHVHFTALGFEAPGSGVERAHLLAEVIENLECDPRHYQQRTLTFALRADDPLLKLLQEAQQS
Protocol: Incubations were initiated by the addition of 50 nM m7GpppA-biotin substrate and proceeded for 45 min at room temperature before being terminated by the addition of 1 μM D156844 [11]. Production of ADP-biotin was quantitated by transferring 18 μl of the quenched reaction (or biotin-ADP standard) to a streptavidin-coated plate (Pierce), incubating for 2 hours then washing 3 times followed by detection using an anti-ADP mouse antibody (Bellbrook lab) and an HRP-conjugated Goat anti-mouse IgG (Invitrogen).

N2a cells = test: RNA-Seq (polyA RNA) of N2a neuroblastoma cells; format: cell-based, mouse; conditions: 1 μM
Protocol: Cells were then pelleted and lysed in RLT and the RNA was purified according to the protocol for the Qiagen miRNeasy kit to separate and enrich small RNA and large (>200 nt) fractions separately. […] RNA quality was also validated using qPCR for DcpS responsive genes. RNA fractions were used for cDNA library preparation which was performed using Truseq mRNA v2 reagents or TailorMix miRNA reagents (RS-122-2101 Illumina, San Diego CA, USA and TM302 Seqmatic, Fremont CA, USA). Libraries were run on a Nextseq 500 (Illumina) using a paired-end run (2x75bp) generating ~60 million reads per library for the mRNA-seq and 1x75bp generating ~5 million reads per library for the miRNA-seq. Demultiplexing, alignment, and differential analysis for the mRNA-seq were performed as described below. For the miRNA alignment, briefly the sequences between 16 and 35 nucleotides with average phred score ≥ 30 were retained for analysis. The reads were first mapped to mouse miRNAs using Bowtie without allowing for mismatches. Instead of discarding the remaining reads, we explored the possibilities of RNA editing to include potential isomiRs. These reads were mapped to miRNAs that have at most 1 base mismatch, a substitution at the 5’ or 3’ ends, or have 1 or 2 extra bases at either ends. Although 1 base mismatch would include 1 base substitution/deletion/addition at the ends, we made sure that 1 base mismatch was inside the miRNA and that all categories were mutually exclusive. Reads mapping to protein coding exons and other small RNAs were removed prior to mapping to miRNAs. Reads that uniquely mapped to miRNAs were considered and were profiled as: 1) identical to miRNAs, 2) perfect match to miRNAs but are of shorter length (no more than 5 bases short), 3) mapping to miRNAs with 1 substitution, 1 or 2 extra bases at 3’ and 5’ ends and with those with at most 1 mismatch (occurring inside the sequence and not on ends), 4) mapping to the precursor miRNA. Thus, steps 2–4 constitute “IsomiRs”-alternative forms of the mature miRNAs. We merged the counts of reads identical to a miR and those mapping to isomeric forms as they are found to have identical/very similar functions. The unaligned reads were mapped to the mouse genome and an internally developed database of rRNAs from bacteria, fungi, plant and eukaryotes to detect presence of contaminants. For differential analysis of miRNAs, only those with counts of ≥5 in at least 1/3rd samples (treatment vs control) were considered for analysis. The counts were normalized and analyzed using EdgeR [19] packages in R-Bioconductor. The P-values were corrected by FDR for multiple testing and miRNAs with FDR ≤15% and |FC|>1.5 were considered to be differentially expressed.
The differentially regulated gene lists for both the spinal cord mRNA-seq and the N2a mRNA-seq results with a corrected P-value less than 0.05 were loaded into IPA and analyzed against the Ingenuity Knowledgebase, Ingenuity Expert Information, and with experimentally observed confidence.

[4] = system: SMN transcripts in SMA-derived lymphoblasts; test: SMN transcripts by ddPCR in SMA-derived lymphoblasts; format: cell-based, human; conditions: active DAQ-DcpSi vs 7-methyl analogues
2B/- SMA mice [5] = test: Survival and body weight study in 2B/- SMA mice; format: in vivo, mouse; conditions: b.i.d. i.p. P4-P20, RG3039 6 mg/kg, PF-06738066 10 mg/kg, P < 0.0001 Mantel-Cox or Gehan-Breslow-Wilcoxon
2B/- SMA mice [6] = test: Combined 55° negative geotaxis/climb test in 2B/- SMA mice; format: in vivo, mouse
[7] = system: Smn transcripts in spinal cord, skeletal muscle, liver; test: Smn transcripts in mouse tissues by ddPCR; format: in vivo
From the text: (§2) At P1, pups were counted.

Smn protein [8] = test: Smn protein in mouse tissues by Western blot; format: in vivo; conditions: 2B/- SMA mice
From the text: as §2

[9] = Plasma drug levels after P4-P16 dosing; conditions: FVB/N background, mouse, ip
From the text: Personnel conducting studies followed the approved standard operating procedures for daily monitoring, dosing, weaning and euthanasia according to the approved study protocol. […] Line maintenance was maintained by interbreeding of the congenic line and every 4th generation mice were outbred to wild type FBV/N mice (jax # 001800) to reduce the possibility of new mutations within the line. Smn 2B mice were internally developed and maintained in the DiDonato laboratory. To generate the SMA mice used in this study an intercross between Smn 2B/2B and Smn +/- mice was performed. This generated litters in which 50% of the offspring were control (2B/+) and 50% SMA (2B/-). The day of birth was considered to be P0. If pups were born after 3pm, the following day was considered P0. At P1, pups were counted. If greater than 10 pups to a cage, pups were randomly chosen and moved to another cage to increase litter size, culled to reduce litter size or genotyped at P1 and culled at P2 to reduce litter size to 10 or fewer pups. Thereafter, no culling of pups was performed for drug studies. Individual mice were genotyped from DNA obtained from tail snips by polymerase chain reaction (PCR). All mice were weaned at P21 and separated into male and female cages. […] For the PK single dose studies a single ip injection was used. […] Body weights were recorded daily in the AM and dosing volume was adjusted accordingly. […]

[10] = Single dose PK in adult FVB/N wild type mice
From the text: Personnel conducting studies followed the approved standard operating procedures for daily monitoring, dosing, weaning and euthanasia according to the approved study protocol. […] Line maintenance was maintained by interbreeding of the congenic line and every 4th generation mice were outbred to wild type FBV/N mice (jax # 001800) to reduce the possibility of new mutations within the line. Smn 2B mice were internally developed and maintained in the DiDonato laboratory. To generate the SMA mice used in this study an intercross between Smn 2B/2B and Smn +/- mice was performed. This generated litters in which 50% of the offspring were control (2B/+) and 50% SMA (2B/-). The day of birth was considered to be P0. If pups were born after 3pm, the following day was considered P0. At P1, pups were counted. If greater than 10 pups to a cage, pups were randomly chosen and moved to another cage to increase litter size, culled to reduce litter size or genotyped at P1 and culled at P2 to reduce litter size to 10 or fewer pups. Thereafter, no culling of pups was performed for drug studies. Individual mice were genotyped from DNA obtained from tail snips by polymerase chain reaction (PCR). All mice were weaned at P21 and separated into male and female cages. […] For the PK single dose studies a single ip injection was used. For survival studies drug level and tissue harvest mice from P4-P16 treatment, mice were treated twice daily (b.i.d.) via intraperitoneal (i.p.) injection starting on P4 and continuing until P20 or the sacrifice of the animals, whichever occurred sooner. The dosing interval was 12 hours ± 90 minutes. Body weights were recorded daily in the AM and dosing volume was adjusted accordingly. […] At P4, litters were randomized across treatment arms to uniformly control litter size and litter weight as appropriate. Litter size entry was a minimum of 6 and maximum of 10. Litters with average weights at P4 that were greater or less than two stand deviations below the average P4 litter weight of untreated litters were also excluded from study entry. All mice within a litter were dosed with only one test article or received no dose at all. Dosers/phenotypic testers were blinded to the test articles being administered. […] Mice meeting humane functional endpoints (30 percent loss of weight for two consecutive days and/or an inability to right within 1 minute or obvious state of distress) were immediately euthanized with CO2 followed by cervical dislocation as a secondary measure. […] Those not used for analyses were also euthanized using CO2 inhalation followed by cervical dislocation as a secondary measure.

[11] = Single dose PK in P13 2B/- SMA and 2B/+ littermate pups
From the text: Personnel conducting studies followed the approved standard operating procedures for daily monitoring, dosing, weaning and euthanasia according to the approved study protocol. […] Line maintenance was maintained by interbreeding of the congenic line and every 4th generation mice were outbred to wild type FBV/N mice (jax # 001800) to reduce the possibility of new mutations within the line. Smn 2B mice were internally developed and maintained in the DiDonato laboratory. To generate the SMA mice used in this study an intercross between Smn 2B/2B and Smn +/- mice was performed. This generated litters in which 50% of the offspring were control (2B/+) and 50% SMA (2B/-). The day of birth was considered to be P0. If pups were born after 3pm, the following day was considered P0. At P1, pups were counted. If greater than 10 pups to a cage, pups were randomly chosen and moved to another cage to increase litter size, culled to reduce litter size or genotyped at P1 and culled at P2 to reduce litter size to 10 or fewer pups. Thereafter, no culling of pups was performed for drug studies. Individual mice were genotyped from DNA obtained from tail snips by polymerase chain reaction (PCR). All mice were weaned at P21 and separated into male and female cages. […] For the PK single dose studies a single ip injection was used. For survival studies drug level and tissue harvest mice from P4-P16 treatment, mice were treated twice daily (b.i.d.) via intraperitoneal (i.p.) injection starting on P4 and continuing until P20 or the sacrifice of the animals, whichever occurred sooner. The dosing interval was 12 hours ± 90 minutes. Body weights were recorded daily in the AM and dosing volume was adjusted accordingly. […] At P4, litters were randomized across treatment arms to uniformly control litter size and litter weight as appropriate. Litter size entry was a minimum of 6 and maximum of 10. Litters with average weights at P4 that were greater or less than two stand deviations below the average P4 litter weight of untreated litters were also excluded from study entry. […]

Smn mRNA in NSC-34 cells = system: Smn mRNA in NSC-34 cells; parameters: method as in PMID 18205293; conditions: cited from earlier work
[12] = system: SMN protein in SMA patient fibroblasts; parameters: method as in PMID 18205293; conditions: cited from earlier work
SMA Δ7 mice = conditions: SMAΔ7 mice; cited from earlier work
[13] = cited from earlier work
[14] = P16, Fisher's exact test P-value = 0.0708
[15] = adult FVB/N mice, 30 mg/kg i.p.

SMILES: CCN1CCN(c2ccc3cc(-c4cn5cc(C)nc(C)c5n4)c(=O)oc3c2)C[C@@H]1C [SMN-C2]
- SMN protein (SMN protein [1]): positive SMN response
- effect on SMN2-driven firefly luciferase activity [2]: strong positive effect
- effect on CMV-driven Renilla luciferase activity [3]: no effect

SMILES: Cc1cc(COc2cc(F)cc(C#N)c2)c2c(N)nc(N)nc2c1 [PF-06832344]
- IC50 (recombinant human DcpS): > 10 µM

SMILES: Cc1cc(OCC2CCN(Cc3c(Cl)cccc3Cl)CC2)c2c(N)nc(N)nc2c1 [PF-06802336]
- effect on SMN2-driven firefly luciferase activity [2]: no effect
- effect on CMV-driven Renilla luciferase activity [3]: no effect
- genes down-regulated by compound (P < 0.05) (N2a cells; 24 hours): 3 genes
- genes upregulated by compound (P < 0.05) (N2a cells; 24 hours): 4 genes
- genes differentially expressed compared to DMSO (P < 0.05) (N2a cells; 24 hours, 18,409 detectable genes): 7 genes

SMILES: N#Cc1cc(F)cc(OCc2cccc3nc(N)nc(N)c23)c1 [PF-06738066]
- changes in SMN transcripts [4]: modest changes in SMN transcripts
- effect on CMV-driven Renilla luciferase activity [3]: strong effect
- effect on survival of SMA mice compared to vehicle-treated SMA mice (2B/- SMA mice [5]): statistically significant beneficial effect on survival
- simultaneous pass rate, 55° negative geotaxis and climb test (2B/- SMA mice [6]; 2B/- SMA mice at P16, combined sexes): about 78%
- improvement in ability to pass the combined assay over vehicle SMA mice (2B/- SMA mice [6]; [14]): ~40%
- statistical significance of improvement over vehicle SMA mice in combined test (2B/- SMA mice [6]; [14]): showed improvement over vehicle SMA mice that did not reach statistical significance
- Smn exons 7/8 in spinal cord ([7]; 2B/+ control mice): significant decrease
- Smn transcripts (exons 5/6, exons 7/8, SmnΔ7) in tissues ([7]; 2B/- SMA mice, P4-P16 BID i.p.): significant increases in Smn transcripts in all tissues
- Smn protein levels in muscle (Smn protein [8]): small but significant increase in muscle
- Smn protein levels in spinal cord (Smn protein [8]): significant decrease in spinal cord
- concentration at 12 h [9]: 184 ± 76 nM
- Cave,u Brain ([10]; FVB/N mice, 30mpk IP): 63 nM
- Cave,u CSF ([10]; FVB/N mice, 30mpk IP): 47 nM
- Cave,u Plasma ([10]; FVB/N mice, 30mpk IP): 173 nM
- brain penetration [10, 15]: moderate brain penetration
- free drug levels in brain and CSF lower than in plasma [10, 15]: approximately 2.5 fold
- free drug levels in brain lower than in plasma ([11]; 2B/- SMA pups, P13, 10 mg/kg i.p.): 3–4 fold
- concentration at 12 h ([11]; FVB/N background, mouse, brain, intraperitoneal, 10 mg/kg): ~7 nM
- drug exposures in SMA pups compared to healthy littermates ([11]; P13, 10 mg/kg i.p.): somewhat higher in SMA pups

SMILES: CC(C)c1cc(C(=O)Nc2ccc(F)c(Cl)c2)no1 [LDN-75654]
- effect on SMN2-driven firefly luciferase activity [2]: strong positive effect
- effect on CMV-driven Renilla luciferase activity [3]: much weaker

SMILES: Nc1nc(N)c2c(OCC3CCN(Cc4ccccc4F)CC3)cccc2n1 [D156844]
- effect on CMV-driven Renilla luciferase activity [3]: strong effect
- endogenous mouse Smn mRNA (Smn mRNA in NSC-34 cells): elevated the endogenous mouse Smn mRNA
- SMN protein levels [12]: raised SMN protein levels
- numbers of SMN-positive nuclear foci (gems) [12]: dramatically increased
- SMN2 or SMNΔ7 transcript levels or SMN protein in CNS tissues (SMA Δ7 mice): no statistically significant effect
- snRNP assembly (SMA Δ7 mice): nor did it have any statistically significant effect
- physicochemical character (lipophilicity, basicity) [13]: highly lipophilic and dibasic
